Experimental data: patent US20100284984A1, “ADENOSINE AND ITS MIMETICS. MODULATORS, TRANSPORT INHIBITORS, AND RECEPTOR AGONISTS AS A THERAPEUTIC TOOL TO REPLACE OR IMPROVE THE EFFICACY OF DEEP BRAIN STIMULATION” (University of Rochester, priority 2007, published 2010)
Entries after “also recorded” stand apart in the source; their conditions may differ.

Legend:
[1] = system: thalamic neurons; experiment: Drug effect on evoked EPSPs (eEPSP) in thalamic slices, current clamp; type: cell-based, mouse; details: DPCPX 100 nM
Procedure: Thalamic slices (300 μm) from 14-18 day old mouse pups (FVB/NJ mice; Jackson Laboratory) were cut on a Vibratome (TPI) in an ice-cold cutting solution containing (in mM): 2.5 KCl, 1.25 NaH2PO4, 10 MgSO4, 5 CaCl2, 10 glucose, 26 NaHCO3, 230 sucrose and gassed with 5% CO2 and 95% O2. Slices were incubated for a minimum of 1 hr in a slice solution containing (in mM): 126 NaCl, 2.5 KCl, 1.25 NaH2PO4, 2 MgCl2, 2 CaCl2, 10 glucose, and 26 NaHCO3, pH 7.4, and gassed with 5% CO2 and 95% O2 at room temperature. The slices were transferred to a recording chamber (1.5 ml) perfused with aCSF at room temperature or 32° C. Whole-cell current clamp recordings were obtained using a 700B Multiclamp amplifier (Axon Instruments) (Jiang et al., “A Kainate Receptor Increases The Efficacy of Gabaergic Synapses,” Neuron 30:503-13 (2001); Tian et al., “An Astrocytic Basis of Epilepsy,” Nat Med 11:973-81 (2005), which are hereby incorporated by reference in their entirety). Concentric bipolar stimulating electrodes (FHC) were placed ˜100-400 μm ventromedial to the patched VL thalamic neuron. Stimulation was delivered through a constant isolated current source (ISO-Flex stimulus isolator with a Master-8-vp stimulator; AMPI) and consisted of monophasic 60 μs square pulses of varying amplitude (15, 25, 50 μA) and frequency (25, 75, 125, 200 Hz). Based upon maximum current amplitude and the surface area of the electrode, it is estimated that the maximum charge density was in the range of ˜1-10 μC/cm^2. The artifacts of the HFS signal were blanked and staggered to allow continuous observation of the 2.5 Hz signal (Anderson et al., “Selective Attenuation of Afferent Synaptic Transmission as a Mechanism of Thalamic Deep Brain Stimulation-Induced Tremor Arrest,” J Neurosci 26:841-50 (2006), which is hereby incorporated by reference in its entirety). Adenosine measurements were detected using needle shaped electrode (Pt/Ir wire) biosensors (Sarissa Biomedical). Calibration was carried out at the beginning and end of each slice experiment in the bath above the slice. Measurements were obtained ˜100 μm from the stimulation electrode in the thalamic slice. […].
To further analyze the role of adenosine in HFS, the effect of perfusion with an aCSF containing 1-100 μM adenosine in thalamic slices was studied. […]. […] The AMPA receptor antagonist, CNQX could not be tested due to its direct effect on EPSCs (Wang et al., “Astrocytic Ca(2+) Signaling Evoked by Sensory Stimulation in Vivo,” Nat Neurosci 9:816-23 (2006), which is hereby incorporated by reference in its entirety) (FIG. 3G). […]. […]

[2] = system: thalamic neurons; experiment: HFS-induced depression of eEPSPs in thalamic slices, pharmacology; type: cell-based, mouse
[3] = system: harmaline-induced tremor; experiment: DBS therapeutic window in harmaline-induced tremor; type: in vivo; details: APV and CNQX 10 mg/kg each i.p.; DPCPX 4 mg/Kg i.p.
Procedure: Harmaline was administed i.p. 20 min prior to DBS (20-30 mg/kg) (Wilms et al., “Animal Models of Tremor,” Mov Disord 14:557-71 (1999); Martin et al., “Harmaline-Induced Tremor as a Potential Preclinical Screening Method for Essential Tremor Medications,” Mov Disord 20:298-305 (2005), which are hereby incorporated by reference in their entirety). […] For electrode and microdialysis implantation, mice were anaesthetized with a mixture of Ketamine (60 mg/kg) and Xylazine (10 mg/kg) and placed into a stereotactic frame. The skull was exposed and concentric bipolar microelectrodes (SNE-100, KOPF) or microdialysis probes (Bioanalytical Systems, Inc.) were implanted into the ventrolateral thalamic nucleus at the following coordinates: AP: −1.4 mm; ML: ±0.9 mm; DV: −3.7 mm. The electrodes or microdialysis probes were attached to the skull with dental cement. […] Tremor was recorded by either EMG electrodes placed in the occipital muscles or by the Convuls-1 pressure transducer (Columbus Instruments) in awake freely moving animals. […]
. […] The minimal efficient current amplitude of DBS was determined by methodically changing the stimulation parameters (FIG. 4C). […]

[4] = system: thalamic neurons; experiment: HFS-induced membrane depolarization of thalamic neurons; type: cell-based, mouse; details: thalamic slices during HFS
[5] = target: Ecto-ATPase; details: Crack et al.; cited from earlier work
[6] = system: thalamic slices; experiment: Extracellular adenosine by biosensor during HFS of thalamic slices; type: cell-based, mouse; details: 50 μM
Procedure: Thalamic slices (300 μm) from 14-18 day old mouse pups (FVB/NJ mice; Jackson Laboratory) were cut on a Vibratome (TPI) in an ice-cold cutting solution containing (in mM): 2.5 KCl, 1.25 NaH2PO4, 10 MgSO4, 5 CaCl2, 10 glucose, 26 NaHCO3, 230 sucrose and gassed with 5% CO2 and 95% O2. Slices were incubated for a minimum of 1 hr in a slice solution containing (in mM): 126 NaCl, 2.5 KCl, 1.25 NaH2PO4, 2 MgCl2, 2 CaCl2, 10 glucose, and 26 NaHCO3, pH 7.4, and gassed with 5% CO2 and 95% O2 at room temperature. The slices were transferred to a recording chamber (1.5 ml) perfused with aCSF at room temperature or 32° C. Whole-cell current clamp recordings were obtained using a 700B Multiclamp amplifier (Axon Instruments) (Jiang et al., “A Kainate Receptor Increases The Efficacy of Gabaergic Synapses,” Neuron 30:503-13 (2001); Tian et al., “An Astrocytic Basis of Epilepsy,” Nat Med 11:973-81 (2005), which are hereby incorporated by reference in their entirety). Concentric bipolar stimulating electrodes (FHC) were placed ˜100-400 μm ventromedial to the patched VL thalamic neuron. […] Adenosine measurements were detected using needle shaped electrode (Pt/Ir wire) biosensors (Sarissa Biomedical). […]

[7] = target: Rat Parotid Ecto-ATPase; details: Dowd et al.; cited from earlier work
[8] = target: Ecto-ATPase; details: Drakulich et al.; cited from earlier work
[9] = system: P2 receptors; details: cited from earlier work
[10] = target: T1, adenosine deaminase (Homo sapiens, UniProt P00813); details: at 27° C.; cited from earlier work
T1 sequence (P00813 1-363): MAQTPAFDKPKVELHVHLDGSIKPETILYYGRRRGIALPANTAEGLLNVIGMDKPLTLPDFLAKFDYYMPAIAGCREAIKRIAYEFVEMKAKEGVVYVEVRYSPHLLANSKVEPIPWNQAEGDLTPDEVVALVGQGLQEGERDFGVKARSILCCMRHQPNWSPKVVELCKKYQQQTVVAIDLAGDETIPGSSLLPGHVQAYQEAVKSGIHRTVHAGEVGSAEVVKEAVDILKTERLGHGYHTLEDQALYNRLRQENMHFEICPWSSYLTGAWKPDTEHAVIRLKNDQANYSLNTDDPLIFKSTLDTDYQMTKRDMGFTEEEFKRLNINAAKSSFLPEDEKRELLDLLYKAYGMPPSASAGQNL

[11] = target: T2, Ecto-5′-nucleotidase CD73 (Rattus norvegicus, UniProt P21588); details: Sato et al., rat hearts; cited from earlier work
T2 sequence (P21588 29-551): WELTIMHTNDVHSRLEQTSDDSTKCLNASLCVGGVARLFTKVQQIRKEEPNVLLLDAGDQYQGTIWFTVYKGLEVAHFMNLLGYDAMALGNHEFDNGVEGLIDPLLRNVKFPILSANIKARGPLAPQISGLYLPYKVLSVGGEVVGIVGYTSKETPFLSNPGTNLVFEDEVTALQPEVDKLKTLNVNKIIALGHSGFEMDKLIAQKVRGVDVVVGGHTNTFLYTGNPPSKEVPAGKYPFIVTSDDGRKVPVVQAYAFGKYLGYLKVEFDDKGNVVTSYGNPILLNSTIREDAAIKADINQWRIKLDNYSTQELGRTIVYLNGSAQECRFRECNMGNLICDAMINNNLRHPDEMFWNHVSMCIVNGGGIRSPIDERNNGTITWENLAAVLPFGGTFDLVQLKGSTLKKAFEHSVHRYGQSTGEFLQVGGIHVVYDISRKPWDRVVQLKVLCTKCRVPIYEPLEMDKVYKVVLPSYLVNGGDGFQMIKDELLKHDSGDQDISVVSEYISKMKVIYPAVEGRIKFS

## CCCn1c(=O)c2[nH]c(C3CCCC3)nc2n(CCC)c1=O [DPCPX]
[1]
  effect on adenosine-induced reduction of eEPSPs: blocked the effect of adenosine; also recorded: reversibly attenuated the reduction
[2]; 300 nM, directly stimulated pathways
  time for EPSPs to recover to pre-stimulation values after HFS: 12.4 ± 6.1 s
[2]; HFS 125 Hz, 250 μA, 10 sec, 32° C., separate electrodes
  effect on HFS-induced depression of eEPSPs, heterosynaptic pathways: attenuated the depression of eEPSPs; also recorded: potently attenuated the HFS-induced suppression of eEPSPs
[2]; same electrode for HFS and eEPSPs
  effect on HFS-induced depression of eEPSPs, homosynaptic (directly stimulated) pathways: reduced depression of eEPSPs after, but not during, HFS; also recorded: attenuated this reduction following, but not during HFS
[3]
  effect on the ability of DBS to reduce harmaline-induced tremor: involuntary movements rather than tremor reduction
  threshold for DBS-induced involuntary movements: developed involuntary movements at stimulation intensities below the therapeutic range
[4]
  effect on HFS-induced depolarization: no effect

## CCN(CC)c1ncnc2c1ncn2C1OC(COP(=O)(O)OP(=O)(O)C(Br)(Br)P(=O)(O)O)C(O)C1O [ARL67156, 6-N,N-diethyl-D-beta, gamma-dibromomethyleneATP]
[5]
  IC50: 4.6 µM
[6]
  HFS-induced increase in extracellular adenosine: reduction in the HFS-induced adenosine increase
[6]; listed as ARL
  HFS-induced increase in extracellular adenosine: reduced adenosine increases during HFS; also recorded: did not completely block the rise in adenosine
[7]
  IC50: 120 µM
[2]; 50 μM, HFS 250 μA, 100 μs, 5 sec, 20° C.
  effect on HFS-induced depression of eEPSPs (FIG. 3G): attenuated HFS-induced depression of eEPSPs
[8]
  Ki: 0.255 µM
[9]
  effect on P2 receptors: lack of or only has weak effect

## CC(=O)Nc1ccc(O)cc1 [acetaminophen]
[10]
  Ki: 126 µM

## COc1ccc(Cl)cc1C(=O)NCCc1ccc(S(=O)(=O)NC(=O)NC2CCCCC2)cc1 [giberclamide]
[11]
  IC50: 10.5 µM
